Assay type in all cases: cell-based
Common to all, as to details: Homo sapiens, compound 5 hours at 37° C., 1% DMSO, percent vehicle fit to 4 parameter curve

One assay concerns Aβ-38. The experiment in a line: Aβ-38 level in conditioned media of 2B7 cells (MSD 3-PLEX ELISA). The method, boiled down:
(§1)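 2B7 cells at confluence were exposed to compound dilutions in medium (1% DMSO final) for 5 h at 37 °C. Conditioned medium, diluted 1:1 in blocking buffer, was assayed by MSD 3-plex electrochemiluminescence ELISA, and levels were read from a seven-point standard curve. IC50 came from a 4-parameter fit of percent-of-vehicle values.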
A general note: ELISA stands for enzyme-linked immunosorbent assay.

In a further assay the test system is Aβ-40. Nature of the assay: Aβ-40 level in conditioned media of 2B7 cells (MSD 3-PLEX ELISA).
The subject of another assay is Aβ-42. Nature of the assay: Aβ-42 level in conditioned media of 2B7 cells (MSD 3-PLEX ELISA). The method, boiled down: as §1

A value given as a limit tells only on which side of the number the result lay.

As usually defined, the IC50 is the concentration at which inhibition is half-maximal. High values mean weaker potency in that assay, low ones greater potency in that assay.

As to `CCO[C@@H]([C@H]1C[C@@H](C)[C@H]2[C@H](O1)[C@H](O)[C@@]1(C)[C@@H]3CC[C@H]4C(C)(C)[C@@H](OC(=O)CN5CCOCC5)CCC45C[C@@]35CC[C@]21C)C(C)(C)O` (stereo partly drawn), the 50% inhibitory concentration (IC50) in the assay with Aβ-38 was below 1 µM; with Aβ-40, 1 to 10 µM; with Aβ-42 it was below 1 µM.

As to `CCO[C@@H]([C@H]1C[C@@H](C)[C@H]2[C@H](O1)[C@H](OCC)[C@@]1(C)[C@@H]3CC[C@H]4C(C)(C)[C@@H](O)CCC45C[C@@]35CC[C@]21C)C(C)(C)O` (stereo partly drawn), the IC50 in the assay on Aβ-38, in the assay with Aβ-40 and in the assay on Aβ-42 was 1 to 10 µM in each case.

`CO[C@@H](C1C[C@@H](C)[C@H]2C(O1)[C@H](O)[C@@]1(C)C3CC[C@H]4C(C)(C)[C@@H](O[C@H]5CNCCO5)CC[C@@]45CC35CC[C@]21C)C(C)(C)O` (stereo partly drawn): the values for the half-maximal inhibitory concentration (IC50) with Aβ-38, with Aβ-40 and in the assay on Aβ-42 were below 1 µM, 1 to 10 µM and below 1 µM, respectively.

Take `CCO[C@@H]([C@H]1C[C@@H](C)[C@H]2[C@H](O1)[C@H](O)[C@@]1(C)[C@@H]3CC[C@H]4C(C)(C)[C@@H](OC5CN(CC(=O)N6CCOCC6)CCO5)CCC45C[C@@]35CC[C@]21C)C(C)(C)O` (stereo partly drawn): the IC50 is below 1 µM in the assay on Aβ-38, above 10 µM with Aβ-40 and below 1 µM in the assay on Aβ-42.

`CO[C@@H]([C@H]1C[C@@H](C)[C@H]2[C@H](O1)[C@H](O)[C@@]1(C)[C@@H]3CC[C@H]4C(C)(C)[C@@H](O[C@H]5CN(CCN6CCOCC6)CCO5)CCC45C[C@@]35CC[C@]21C)C(C)(C)O` (stereo partly drawn): the values for the IC50 with Aβ-38, with Aβ-40 and in the assay with Aβ-42 were below 1 µM, 1 to 10 µM and below 1 µM, respectively.

As for `CO[C@@H]([C@H]1C[C@@H](C)[C@H]2[C@H](O1)[C@H](O)[C@@]1(C)[C@@H]3CC[C@H]4C(C)(C)[C@@H](O[C@H]5CN(CCN(C)C)CCO5)CCC45C[C@@]35CC[C@]21C)C(C)(C)O` (stereo partly drawn), the results for the IC50 with Aβ-38, in the assay with Aβ-40 and with Aβ-42 were 1 to 10 µM, above 10 µM and below 1 µM, respectively.

Take `CCO[C@@H]([C@H]1C[C@@H](C)[C@H]2[C@H](O1)[C@H](O)[C@@]1(C)[C@@H]3CC[C@H]4C(C)(C)[C@@H](O[C@H]5CN([C@@H](C)CN6CCC6)CCO5)CCC45C[C@@]35CC[C@]21C)C(C)(C)O` (stereo partly drawn): the IC50 with Aβ-38 was below 1 µM; in the assay with Aβ-40 it was 1 to 10 µM; in the assay with Aβ-42, below 1 µM.

Consider `CCO[C@@H]([C@H]1C[C@@H](C)[C@H]2[C@H](O1)[C@H](O)[C@@]1(C)[C@@H]3CC[C@H]4C(C)(C)[C@@H](O[C@H]5CN([C@@H](C)CO)CCO5)CCC45C[C@@]35CC[C@]21C)C(C)(C)O` (stereo partly drawn), for which the results for the IC50 in the assay on Aβ-38, in the assay with Aβ-40 and in the assay with Aβ-42 were below 1 µM, 1 to 10 µM and below 1 µM, respectively.

As for `CCO[C@@H]([C@H]1C[C@@H](C)[C@H]2[C@H](O1)[C@H](O)[C@@]1(C)[C@@H]3CC[C@H]4C(C)(C)[C@@H](O[C@H]5CN([C@H](C)CO)CCO5)CC[C@@]45C[C@@]35CC[C@]21C)C(C)(C)O`, the results for the 50% inhibitory concentration (IC50) with Aβ-38, with Aβ-40 and in the assay on Aβ-42 were 1 to 10 µM, 1 to 10 µM and below 1 µM, respectively.

`CCO[C@@H]([C@H]1C[C@@H](C)[C@H]2[C@H](O1)[C@H](O)[C@@]1(C)[C@@H]3CC[C@H]4C(C)(C)[C@@H](O[C@H]5CN(CC(C)(C)O)CCO5)CCC45C[C@@]35CC[C@]21C)C(C)(C)O` (stereo partly drawn): the IC50 in the assay with Aβ-38 was below 1 µM; in the assay with Aβ-40 it was 1 to 10 µM; in the assay on Aβ-42, below 1 µM.

Take `CCO[C@@H]([C@H]1C[C@@H](C)[C@H]2[C@H](O1)[C@H](O)[C@@]1(C)[C@@H]3CC[C@H]4C(C)(C)[C@@H](O[C@H]5CN(C(C)(C)CO)CCO5)CCC45C[C@@]35CC[C@]21C)C(C)(C)O` (stereo partly drawn): the values for the IC50 in the assay on Aβ-38, in the assay with Aβ-40 and with Aβ-42 were below 1 µM, 1 to 10 µM and below 1 µM, respectively.

Take `CCO[C@@H](C1C[C@@H](C)[C@H]2C(O1)[C@H](O)[C@@]1(C)C3CC[C@H]4C(C)(C)[C@@H](O[C@H]5CN(C(=O)CC6CNC6)CCO5)CCC45C[C@@]35CC[C@]21C)C(C)(C)O` (stereo partly drawn): the IC50 is below 1 µM with Aβ-38, 1 to 10 µM in the assay on Aβ-40 and below 1 µM with Aβ-42.

Take `CCO[C@@H](C1C[C@@H](C)[C@H]2C(O1)[C@H](O)[C@@]1(C)C3CC[C@H]4C(C)(C)[C@@H](O[C@H]5CN(C(=O)CC6CN(C)C6)CCO5)CCC45C[C@@]35CC[C@]21C)C(C)(C)O` (stereo partly drawn): the IC50 is below 1 µM with Aβ-38, 1 to 10 µM in the assay with Aβ-40 and below 1 µM in the assay with Aβ-42.

For the compound `CCO[C@@H]([C@H]1C[C@@H](C)[C@H]2[C@H](O1)[C@H](O)[C@]1(C)[C@@H]3CC[C@H]4C(C)(C)[C@@H](O[C@H]5CN(C(=O)C6CNC6)CCO5)CC[C@@]45C[C@@]35CC[C@@]21C)C(C)(C)O`, the values for the IC50 in the assay on Aβ-38, in the assay on Aβ-40 and in the assay on Aβ-42 were below 1 µM, 1 to 10 µM and below 1 µM, respectively.

As for `CCO[C@@H]([C@H]1C[C@@H](C)[C@H]2[C@H](O1)[C@H](O)[C@@]1(C)[C@@H]3CC[C@H]4C(C)(C)[C@@H](O[C@H]5CN(CCF)CCO5)CCC45C[C@@]35CC[C@]21C)C(C)(C)O` (stereo partly drawn), the IC50 in the assay with Aβ-38 was below 1 µM; in the assay on Aβ-40, 1 to 10 µM; with Aβ-42, below 1 µM.

As for `CCO[C@@H]([C@H]1C[C@@H](C)[C@H]2[C@H](O1)[C@H](O)[C@@]1(C)[C@@H]3CC[C@H]4C(C)(C)[C@@H](O[C@H]5CN(C(C)(C)COC)CCO5)CCC45C[C@@]35CC[C@]21C)C(C)(C)O` (stereo partly drawn), the figures for the IC50 with Aβ-38, with Aβ-40 and in the assay on Aβ-42 were below 1 µM, above 10 µM and below 1 µM, respectively.

In the case of `CCO[C@@H]([C@H]1C[C@@H](C)[C@H]2[C@H](O1)[C@H](O)[C@@]1(C)[C@@H]3CC[C@H]4C(C)(C)[C@@H](O[C@H]5CN(CCN6CCOC6=O)CCO5)CCC45C[C@@]35CC[C@]21C)C(C)(C)O` (stereo partly drawn), the IC50 is below 1 µM in the assay with Aβ-38, 1 to 10 µM in the assay with Aβ-40 and below 1 µM with Aβ-42.

For `CCO[C@@H]([C@H]1C[C@@H](C)[C@H]2[C@H](O1)[C@H](O)[C@@]1(C)[C@@H]3CC[C@H]4C(C)(C)[C@@H](O[C@H]5CN([C@H](C)CF)CCO5)CCC45C[C@@]35CC[C@]21C)C(C)(C)O` (stereo partly drawn), the IC50 was 1 to 10 µM with Aβ-38, above 10 µM in the assay with Aβ-40 and 1 to 10 µM with Aβ-42.

For `CCO[C@@H]([C@H]1C[C@@H](C)[C@H]2[C@H](O1)[C@H](O)[C@@]1(C)[C@@H]3CC[C@H]4C(C)(C)[C@@H](O[C@H]5CN([C@@H](C)CF)CCO5)CC[C@@]45C[C@@]35CC[C@]21C)C(C)(C)O`, the concentration for half-maximal inhibition (IC50) is 1 to 10 µM in the assay with Aβ-38, above 10 µM in the assay with Aβ-40 and 1 to 10 µM in the assay with Aβ-42.

Take `CCO[C@@H]([C@H]1C[C@@H](C)[C@H]2[C@H](O1)[C@H](O)[C@@]1(C)[C@@H]3CC[C@H]4C(C)(C)[C@@H](O[C@H]5CN([C@H](C)COC)CCO5)CCC45C[C@@]35CC[C@]21C)C(C)(C)O` (stereo partly drawn): the half-inhibitory concentration (IC50) in the assay with Aβ-38 is 1 to 10 µM; with Aβ-40 it was above 10 µM; with Aβ-42, below 1 µM.

Take `CCO[C@@H]([C@H]1C[C@@H](C)[C@H]2[C@H](O1)[C@H](O)[C@@]1(C)[C@@H]3CC[C@H]4C(C)(C)[C@@H](O[C@H]5CN(Cc6ccn(C)n6)CCO5)CCC45C[C@@]35CC[C@]21C)C(C)(C)O` (stereo partly drawn): the half-maximal inhibitory concentration (IC50) was 1 to 10 µM with Aβ-38, above 10 µM with Aβ-40 and below 1 µM in the assay with Aβ-42.

Consider `CCO[C@@H]([C@H]1C[C@@H](C)[C@H]2[C@H](O1)[C@H](O)[C@@]1(C)[C@@H]3CC[C@H]4C(C)(C)[C@@H](O[C@H]5CN([C@@H](C)COC)CCO5)CC[C@@]45C[C@@]35CC[C@]21C)C(C)(C)O`, for which the IC50 in the assay on Aβ-38 was 1 to 10 µM; with Aβ-40, above 10 µM; in the assay on Aβ-42, below 1 µM.

On to `CCO[C@@H]([C@H]1C[C@@H](C)[C@H]2[C@H](O1)[C@H](O)[C@@]1(C)[C@@H]3CC[C@H]4C(C)(C)[C@@H](O[C@H]5CN(Cc6ncc[nH]6)CCO5)CCC45C[C@@]35CC[C@]21C)C(C)(C)O` (stereo partly drawn), for which the values for the IC50 in the assay on Aβ-38, in the assay on Aβ-40 and with Aβ-42 were below 1 µM, 1 to 10 µM and below 1 µM, respectively.

For the origin of these results see patent US20130060013A1, “Compounds useful for treating neurodegenerative disorders” (SATORI PHARMACEUTICALS, INC., priority 2011, published 2013).
